Our source for the IC50 values is patent US20120190666A1, “Heteroaryl Compounds as PIKK Inhibitors” (Amgen Inc., priority 2009, published 2012).

The structures appear in SMILES notation.

The test deals with T1, PI3Kα (Homo sapiens, UniProt P42336).
T1 construct: Full length p110 subunits of PI3K α, β and δ, N-terminally labeled with polyHis tag; polyHis (N); made in house; host or cells: Sf9 insect cells (baculovirus)
T1 sequence (P42336 whole entry): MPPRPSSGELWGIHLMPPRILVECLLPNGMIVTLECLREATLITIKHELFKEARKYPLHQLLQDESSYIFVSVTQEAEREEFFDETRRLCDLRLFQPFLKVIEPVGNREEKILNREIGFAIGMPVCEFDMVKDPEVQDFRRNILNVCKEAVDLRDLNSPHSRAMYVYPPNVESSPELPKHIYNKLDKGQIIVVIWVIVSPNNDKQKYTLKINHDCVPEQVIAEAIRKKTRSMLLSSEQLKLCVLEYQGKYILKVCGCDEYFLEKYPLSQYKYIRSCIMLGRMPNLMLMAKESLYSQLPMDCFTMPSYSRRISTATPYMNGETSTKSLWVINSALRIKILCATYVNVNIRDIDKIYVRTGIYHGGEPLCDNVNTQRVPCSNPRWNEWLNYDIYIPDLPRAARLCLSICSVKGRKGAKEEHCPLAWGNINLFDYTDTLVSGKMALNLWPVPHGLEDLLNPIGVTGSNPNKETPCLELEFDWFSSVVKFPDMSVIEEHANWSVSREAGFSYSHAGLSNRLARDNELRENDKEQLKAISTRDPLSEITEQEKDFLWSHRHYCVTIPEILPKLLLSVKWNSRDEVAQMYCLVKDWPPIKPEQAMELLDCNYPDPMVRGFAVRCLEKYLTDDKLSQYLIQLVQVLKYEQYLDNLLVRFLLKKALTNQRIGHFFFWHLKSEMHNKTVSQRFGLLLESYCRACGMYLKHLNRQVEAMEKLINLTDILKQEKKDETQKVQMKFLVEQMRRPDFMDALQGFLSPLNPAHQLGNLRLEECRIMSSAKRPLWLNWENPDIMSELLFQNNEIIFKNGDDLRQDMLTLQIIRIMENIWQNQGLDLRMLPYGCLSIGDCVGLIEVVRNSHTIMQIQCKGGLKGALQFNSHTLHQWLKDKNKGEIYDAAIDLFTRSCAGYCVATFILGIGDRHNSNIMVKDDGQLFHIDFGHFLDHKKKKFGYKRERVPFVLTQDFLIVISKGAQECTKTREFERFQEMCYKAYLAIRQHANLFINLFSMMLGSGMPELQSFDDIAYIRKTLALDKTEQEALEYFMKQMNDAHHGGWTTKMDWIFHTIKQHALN
T1 sequence (P27986 whole entry partner): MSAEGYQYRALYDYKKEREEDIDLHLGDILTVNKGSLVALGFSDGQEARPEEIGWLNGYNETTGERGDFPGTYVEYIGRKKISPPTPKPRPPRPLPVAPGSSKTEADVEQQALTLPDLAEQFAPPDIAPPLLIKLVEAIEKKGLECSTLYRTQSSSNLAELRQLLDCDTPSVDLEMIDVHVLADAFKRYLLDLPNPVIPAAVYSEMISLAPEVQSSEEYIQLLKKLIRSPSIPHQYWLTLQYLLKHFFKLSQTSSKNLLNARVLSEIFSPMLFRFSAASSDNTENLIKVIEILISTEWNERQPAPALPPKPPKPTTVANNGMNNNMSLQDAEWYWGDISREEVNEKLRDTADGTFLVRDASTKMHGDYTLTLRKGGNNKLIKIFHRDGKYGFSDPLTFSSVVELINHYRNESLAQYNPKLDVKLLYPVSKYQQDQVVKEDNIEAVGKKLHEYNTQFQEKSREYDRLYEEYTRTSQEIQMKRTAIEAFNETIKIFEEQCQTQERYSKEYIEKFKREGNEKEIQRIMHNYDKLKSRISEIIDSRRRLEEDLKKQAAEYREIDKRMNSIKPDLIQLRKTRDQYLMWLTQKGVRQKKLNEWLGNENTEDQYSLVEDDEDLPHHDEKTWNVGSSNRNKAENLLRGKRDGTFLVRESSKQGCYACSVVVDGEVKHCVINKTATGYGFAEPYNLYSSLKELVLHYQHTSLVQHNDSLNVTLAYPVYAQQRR
As to the kind of experiment: In vitro PI3K AlphaScreen assay, PI3Kα. The test is classed as biochemical. The following applies: PI(4,5)P2 substrate, 20 minutes at room temperature, read-out: P13Kalpha IC50 um. As for the experimental part: The PI3K AlphaScreen® assay (PerkinElmer, Waltham, Mass.) measures the activity of a panel of four phosphoinositide 3-kinases: PI3Kα, PI3KIβ, PI3Kγ, and PI3Kδ. Each of these enzymes phosphorylates the 3′-hydroxyl group on phosphatidylinositiol (4,5)-bisphosphate (PIP2) to produce phosphatidylinositol (3,4,5)-trisphosphate (PIP3). This phosphorylation activity is measured using a GST-tagged PIP3 binding protein (Echelon Biosciences, Salt Lake City, Utah), an anti-GST-tagged Acceptor bead, and streptavidin-Donor bead. The interaction of biotinylated-PIP3 analog (IP4) and the PIP3 binding protein brings both Acceptor and Donor beads together producing, upon excitation of the Donor beads at 680 nm, a singlet oxygen species leading to the luminescent AlphaScreen® signal. When PIP3 is produced via phosphorylation of PIP2 by a PI3K, PIP3 competes with biotinylated-PIP3 analog (IP4) for binding to the PIP3 binding protein. In the absence of this interaction, proximity of the Donor and Acceptor beads is decreased, producing a loss of luminescent signal which is […] to PI3K activity. […] The enzyme reaction buffer is made using sterile water (Baxter, Deerfield, Ill.) and 50 mM Tris HCl pH 7, 14 mM MgCl2, 2 mM sodium cholate, and 100 mM NaCl. 2 mM DTT is added fresh the day of the experiment. The AlphaScreen® reaction buffer is made using sterile water and 10 mM Tris HCl pH 7.5, 150 mM NaCl, 0.10% Tween 20, and 30 mM EDTA. 1 mM DTT is added fresh the day of the experiment. The source plates for this assay are 384-well Greiner clear polypropylene plates containing test compounds at 5 mM and diluted 1:2 over 22 points. Columns 23 and 24 contain only DMSO as these are designated for positive and negative controls. Source plates are replicated into 384-well Optiplates (PerkinElmer, Waltham, Mass.), 0.5 μL/well, to make assay-ready plates. The different PI3K isoforms are each diluted in enzyme reaction buffer to 2× working solutions. PI3Kα is diluted to 1.6 nM, PI3Kβ is diluted to 0.8 nM, PI3Kγ is diluted to 15 nM, and PI3Kδ is diluted to 1.6 nM. Two different 2× substrate solutions are made in enzyme reaction buffer. In one solution, PI(4,5)P2 (Echelon Biosciences, Salt Lake City, Utah) is diluted to 10 μM and ATP is diluted to 20 μM. This solution is used in the assays testing PI3Kα and PI3Kβ. In a second solution, PI(4,5)P2 is diluted to 10 μM and ATP is diluted to 80 μM. This solution is used in the assays testing PI3Kγ and PI3Kδ. The AlphaScreen® reaction solutions are made using beads from the anti-GST AlphaScreen® kit (PerkinElmer, Waltham, Mass.). Two solutions are made in Alphascreen reaction buffer to 4× working concentrations. In one solution, biotinylated-IP4 (Echelon Biosciences, Salt Lake City, Utah) is diluted to 40 nM and streptavadin-Donor Beads are diluted to 80 μg/mL. In the second solution, PIP3-binding protein (Echelon Biosciences, Salt Lake City, Utah) is diluted to 40 nM and anti-GST-Acceptor Beads are diluted to 80 μg/mL. 10 μL/well of enzyme reaction buffer is added to Column 24 of the assay ready plates in place of enzyme. This is done for plates in the PI3Kα, β, and δ assays. Using a 384-well dispensing Multidrop (Titertek, Huntsville, Ala.), 10 μL/well of 2× enzyme (PI3Kα, β, δ) is added to Columns 1-23 of the appropriate assay ready plates (for PI3Kγ 10 μL is added to Columns 1-24). 10 μL/well of the appropriate substrate solution (the solution with 20 μM ATP for PI3Kα and β assays, and the solution with […] for PI3Kγ and δ assays) is then added to Columns 1-24 of the plates. Plates are then incubated at room temperature for 20 minutes. In the dark, 10 μL/well of the Donor Bead solution is added to Columns 1-24 of the plates to quench the enzyme reaction. The plates are incubated at room temperature for 30 minutes. Still in the dark, 10 μL/well of the Acceptor Bead solution is also added to Columns 1-24 of the plates. The plates are then incubated in the dark for 1.5 hours.
(In general: Alpha assays give light when donor and acceptor beads are brought close together.)
Turning to `Cc1nc(N)nc(-c2c(Nc3cc[nH]n3)nc3ccccn23)n1` [Cpd 1, 3-(4-amino-6-methyl-1,3,5-triazin-2-yl)-N-(1H-pyrazol-3-yl)imidazo[1,2-a]pyridin-2-amine], the IC50 is 820 nM.

For the molecule `Cc1nc(-c2c(Nc3cccc(O)c3)nc3ccccn23)c2nc[nH]c2n1` [Cpd 2], the IC50 worked out at 20 nM.

In the case of `CNc1nc(C)nc(-c2c(Nc3cc[nH]n3)nc3ccccn23)n1` [Cpd 3, 3-(4-methyl-6-(methylamino)-1,3,5-triazin-2-yl)-N-(1H-pyrazol-3-yl)imidazo[1,2-a]pyridin-2-amine], the IC50 is 820 nM.

Take `Cc1nc(N)cc(-c2c(Nc3cc[nH]n3)nc3cccnn23)n1` [Cpd 7, 3-(6-amino-2-methylpyrimidin-4-yl)-N-(1H-pyrazol-3-yl)imidazo[1,2-b]pyridazin-2-amine]: the IC50 was 830 nM.

Take `Cc1nc(N)cc(-n2nc(C(=O)Nc3cccnc3)cc2Nc2ccn[nH]2)n1` [Cpd 11, 5-(1H-pyrazol-5-ylamino)-1-(6-amino-2-methylpyrimidin-4-yl)-N-(pyridin-3-yl)-1H-pyrazole-3-carboxamide]: the IC50 turned out to be 660 nM.

Take `Cc1nc(N)cc(-n2nc(C(=O)N3CCOCC3)cc2Nc2ccn[nH]2)n1` [Cpd 13, (5-(1H-pyrazol-5-ylamino)-1-(6-amino-2-methylpyrimidin-4-yl)-1H-pyrazol-3-yl)(morpholino)methanone]: the IC50 is 1120 nM.

Turning to `CNC(=O)c1cc(Nc2ccn[nH]2)n(-c2cc(N)nc(C)n2)n1` [Cpd 14, 5-(1H-pyrazol-5-ylamino)-1-(6-amino-2-methylpyrimidin-4-yl)-N-methyl-1H-pyrazole-3-carboxamide], the IC50 came out at 2350 nM.

Turning to `CCOC(=O)c1cc(Nc2cc[nH]n2)n(-c2cc(N)nc(C)n2)n1` [Cpd 15, ethyl 5-(1H-pyrazol-3-ylamino)-1-(6-amino-2-methylpyrimidin-4-yl)-1H-pyrazole-3-carboxylate], the IC50 was found to be 340 nM.

`Cc1nc(N)cc(-n2nc(C(=O)NC3CC3)cc2Nc2cc[nH]n2)n1` [Cpd 16, 5-(1H-pyrazol-5-ylamino)-1-(6-amino-2-methylpyrimidin-4-yl)-N-cyclopropyl-1H-pyrazole-3-carboxamide]: the IC50 was 2380 nM.

Regarding `Cc1cc(Nc2cc[nH]n2)n(-c2cc(N)nc(C)n2)n1` [Cpd 18, 6-(5-(1H-pyrazol-3-ylamino)-3-methyl-1H-pyrazol-1-yl)-2-methylpyrimidin-4-amine], the IC50 stood at 3230 nM.

In the case of `COc1ccc(Nc2cc(C)nn2-c2cc(N)nc(C)n2)cn1` [Cpd 24, 6-(5-(6-methoxypyridin-3-ylamino)-3-methyl-1H-pyrazol-1-yl)-2-methylpyrimidin-4-amine], the IC50 was 790 nM.

With `Cc1nc(Nc2ccccc2F)cc(-c2c(Nc3cc[nH]n3)nc3cccnn23)n1` [Cpd 31, 3-(6-((2-fluorophenyl)amino)-2-methyl-4-pyrimidinyl)-N-1H-pyrazol-3-ylimidazo[1,2-b]pyridazin-2-amine], the IC50 worked out at 2760 nM.

Consider `COc1ccc(Nc2cc(-c3c(Nc4cc[nH]n4)nc4cccnn34)nc(C)n2)cc1` [Cpd 33], for which the IC50 stood at 660 nM.

Regarding `Cc1nc(Nc2cccnn2)cc(-c2c(Nc3ccn(C)n3)nc3cccnn23)n1` [Cpd 34, N-(1-methyl-1H-pyrazol-3-yl)-3-(2-methyl-6-(3-pyridazinylamino)-4-pyrimidinyl)imidazo[1,2-b]pyridazin-2-amine], the IC50 amounted to 750 nM.

In the case of `Cc1nc(Nc2ccc(N3CCN(C)CC3)nn2)cc(-c2c(Nc3cc[nH]n3)nc3cccnn23)n1` [Cpd 35, 3-(2-methyl-6-((6-(4-methyl-1-piperazinyl)-3-pyridazinyl)amino)-4-pyrimidinyl)-N-1H-pyrazol-3-ylimidazo[1,2-b]pyridazin-2-amine], the IC50 was 110 nM.

For the molecule `CCNC(=O)Nc1ccc(Nc2nc3ccccn3c2-c2cc(N)nc(C)n2)cc1` [Cpd 40, 1-(4-((3-(6-amino-2-methyl-4-pyrimidinyl)imidazo[1,2-a]pyridin-2-yl)amino)phenyl)-3-ethylurea], the IC50 was determined as 450 nM.

For `Cc1nc(N)cc(-c2c(Nc3ccc4cc[nH]c4n3)nc3ccccn23)n1` [Cpd 41, 3-(6-amino-2-methyl-4-pyrimidinyl)-N-1H-pyrrolo[2,3-b]pyridin-6-ylimidazo[1,2-a]pyridin-2-amine], the IC50 amounted to 43200 nM.

Consider `Cc1nc(Nc2ccc(N3CCOCC3)nn2)cc(-c2c(Nc3cc[nH]n3)nc3ccccn23)n1` [Cpd 49, 3-(2-methyl-6-((6-(4-morpholinyl)-3-pyridazinyl)amino)-4-pyrimidinyl)-N-1H-pyrazol-3-ylimidazo[1,2-a]pyridin-2-amine], for which the IC50 was 130 nM.

Take `COCCOc1cnnc(Nc2cc(-c3c(Nc4ccc(NC(C)=O)cc4)nc4cccnn34)nc(C)n2)c1` [Cpd 53, N-(4-((3-(6-((5-(2-methoxyethoxy)-3-pyridazinyl)amino)-2-methyl-4-pyrimidinyl)imidazo[1,2-b]pyridazin-2-yl)amino)phenyl)acetamide]: the IC50 came to 20 nM.

Regarding `Cc1nc(N)cc(-c2c(Nc3ccc(NC(=O)Nc4ccncc4)cc3)nc3ccccn23)n1` [Cpd 57, 1-(4-((3-(6-amino-2-methyl-4-pyrimidinyl)imidazo[1,2-a]pyridin-2-yl)amino)phenyl)-3-(4-pyridinyl)urea], the IC50 came to 10 nM.

In the case of `Cc1nc(Nc2cc(OCC(F)(F)F)cnn2)cc(-c2c(Nc3cc[nH]n3)nc3cccnn23)n1` [Cpd 60, 3-(2-methyl-6-((5-(2,2,2-trifluoroethoxy)-3-pyridazinyl)amino)-4-pyrimidinyl)-N-1H-pyrazol-3-ylimidazo[1,2-b]pyridazin-2-amine], the IC50 is 39200 nM.

In the case of `CC(=O)Nc1cc(-c2c(Nc3ccn(C)n3)nc3c(F)cccn23)nc(C)n1` [Cpd 63, N-(6-(8-fluoro-2-((1-methyl-1H-pyrazol-3-yl)amino)imidazo[1,2-a]pyridin-3-yl)-2-methyl-4-pyrimidinyl)acetamide], the IC50 was 2040 nM.

As for `Cc1nc(N)cc(-c2c(Nc3ccn(C)n3)nc3ccc(-c4cccc(S(C)(=O)=O)c4)cn23)n1` [Cpd 65, 3-(6-amino-2-methyl-4-pyrimidinyl)-N-(1-methyl-1H-pyrazol-3-yl)-6-(3-(methylsulfonyl)phenyl)imidazo[1,2-a]pyridin-2-amine], the IC50 turned out to be 8690 nM.

For the molecule `CC(=O)n1ccc(Nc2nc3cccnn3c2-c2cc(N)nc(C)n2)n1` [Cpd 67, N-(1-acetyl-1H-pyrazol-3-yl)-3-(6-amino-2-methyl-4-pyrimidinyl)imidazo[1,2-b]pyridazin-2-amine], the IC50 was 750 nM.

For the molecule `COCCOc1ccc2nc(Nc3cc[nH]n3)c(-c3cc(N)nc(C)n3)n2n1` [Cpd 69, 3-(6-amino-2-methyl-4-pyrimidinyl)-6-(2-methoxyethoxy)-N-1H-pyrazol-3-ylimidazo[1,2-b]pyridazin-2-amine], the IC50 is 90 nM.

In the case of `CNc1cc(-c2c(Nc3cc[nH]n3)nc3ccc(N4CCOCC4)nn23)nc(C)n1` [Cpd 72, 3-(2-methyl-6-(methylamino)-4-pyrimidinyl)-6-(4-morpholinyl)-N-1H-pyrazol-3-ylimidazo[1,2-b]pyridazin-2-amine], the IC50 turned out to be 110 nM.

`Cc1nc(N)cc(-c2c(Nc3cc[nH]n3)nc3ccc(OCCN4CCCC4)nn23)n1` [Cpd 73]: the IC50 worked out at 800 nM.

By IC50 is commonly meant the concentration that gives 50% inhibition.
